These results are taken from patent US6969702B2, “Compounds and methods for increasing neurogenesis” (priority 2002, dated 2005).

Marks after values point to notes of the source that are not given here. Square brackets hold non-standard residues; d marks the D form. Peptide text beside a SMILES is read from it. d(pGlu) = O=C1CC[C@H](C(=O)O)N1

Data set [1] relates to mouse adult neural stem cells. The data set can be described thus: ATP-assay: proliferation (ATP levels) of neurosphere-derived cells. To be noted: for Fold Induction ATP: vs vehicle.
In another data set the test system is Adult neural stem cells. The data set can be described thus: Flow cytometry for early neuronal marker Doublecortin. The note with it: for % Doublecortin-positive cells / Fold Induction (Doublecortin-positive cells): Table 6; for % Doublecortin-positive cells: 4 days; for Fold Induction (Doublecortin-positive cells): vs EGF/FGF.
Data set [2] has as its system cAMP activation in mouse adult neural stem cells. Briefly: cAMP detection (HitHunter EFC Cyclic AMP Chemiluminescence Assay). To be noted: for Fold Induction cAMP: vs vehicle.
Where [3] appears, read: Table 2, 10 nM (cAMP concentration).
Setting [4] is: Table 2, 100 nM (cAMP concentration).
[5] abbreviates: Table 2, 1 nM (cAMP concentration).

For the molecule `CSCC[C@@H]1NC(=O)[C@H](C)NC(=O)[C@H]([C@@H](C)O)NC(=O)CNC(=O)[C@H](CC(C)C)NC(=O)[C@H](CCCCN)NC(=O)[C@H](CCCNC(=N)N)NC(=O)[C@@H]2CSSC[C@@H]3NC(=O)[C@@H]4CCCN4C(=O)[C@H](C(C)C)NC(=O)[C@H](CCC(N)=O)NC(=O)[C@H](CCC(N)=O)NC(=O)CNC(=O)[C@H](CC(C)C)NC(=O)[C@@H]4CSSC[C@H](NC(=O)[C@H]([C@@H](C)O)NC(=O)[C@H](C)NC(=O)[C@H](CSSC[C@@H](C(=O)N[C@@H](CO)C(=O)N[C@@H](CCCNC(=N)N)C(=O)N[C@H](C(N)=O)[C@@H](C)O)NC(=O)[C@@H]5CCCN5C(=O)[C@H](CC(N)=O)NC1=O)NC(=O)[C@@H]1CCCN1C(=O)[C@H](CC(=O)O)NC(=O)[C@H](CSSC[C@H](N)C(=O)N[C@@H](C(C)C)C(=O)N[C@@H](CCCNC(=N)N)C(=O)N[C@@H](CC(C)C)C(=O)N[C@@H](Cc1c[nH]cn1)C(=O)N[C@@H](CCC(=O)O)C(=O)N[C@@H](CO)C(=O)N4)NC3=O)C(=O)N[C@@H](Cc1ccc(O)cc1)C(=O)N[C@H]1CSSC[C@H](NC(=O)[C@H](Cc3ccccc3)NC(=O)[C@H](C)NC(=O)[C@H](CC(N)=O)NC(=O)[C@H](Cc3ccccc3)NC(=O)[C@H](Cc3ccccc3)NC(=O)[C@H](CCCNC(=N)N)NC1=O)C(=O)N[C@@H](Cc1ccc(O)cc1)C(=O)N2` [Agouti Related Protein (87-132)-Amide (Human)], in data set [1] (Table 2, 10 nM, 4 days), the “ATP (nM ATP/well)” value is reported as 11.2 ± 1.7 nM ATP/well and the “Fold Induction ATP” value is given as 1.4* fold. Also, in the data set on Adult neural stem cells (100 nM), the “% Doublecortin-positive cells” value was 2.4% and the “Fold Induction (Doublecortin-positive cells)” value came out at 0.9 fold. The “cAMP (pmol/well)” value in data set [2] (setting [3]) was determined as 0.5 ± 0.20 pmol/well. Further, in data set [2] (Table 2, 10 nM), the “Fold Induction cAMP” value is 2.4* fold.

With `CSCC[C@H](NC(=O)[C@H](Cc1ccc(O)cc1)NC(=O)[C@@H](N)CC(=O)O)C(=O)NCC(=O)N[C@@H](Cc1c[nH]c2ccccc12)C(=O)N[C@@H](CCSC)C(=O)N[C@@H](CC(=O)O)C(=O)N[C@@H](Cc1ccccc1)C(N)=O` [Cholecystokinin Octapeptide [CCK(26-33)]], the “ATP (nM ATP/well)” value in data set [1] (Table 2, 10 nM, 4 days) is 9.8 ± 0.4 nM ATP/well. In addition, the “% Doublecortin-positive cells” value in the data set with Adult neural stem cells (100 nM) was found to be 3.2%. Further, the “cAMP (pmol/well)” value in data set [2] (setting [4]) is reported as 0.27 ± 0.06 pmol/well.

Turning to `NC(=O)CC[C@@H]1NC(=O)[C@H](Cc2ccccc2)NC(=O)[C@H](Cc2ccc(O)cc2)NC(=O)CCSSC[C@@H](C(=O)N2CCC[C@H]2C(=O)N[C@H](CCCN=C(N)N)C(=O)NCC(N)=O)NC(=O)[C@H](CC(N)=O)NC1=O` [DDAVP], in data set [1] (Table 2, 100 nM, 4 days), the “ATP (nM ATP/well)” value is reported as 11.5 ± 1.4 nM ATP/well and the “Fold Induction ATP” value is 1.5* fold. In the data set with Adult neural stem cells (100 nM), the “% Doublecortin-positive cells” value came out at 4.6% and the “Fold Induction (Doublecortin-positive cells)” value is 1.8 fold. Besides, the “cAMP (pmol/well)” value in data set [2] (setting [3]) was 0.27 ± 0.02 pmol/well. Besides, the “Fold Induction cAMP” value in data set [2] (Table 2, 10 nM) was 1.9*** (10 nM) fold.

On to `C=C[C@@]1(C)CC(=O)[C@]2(O)[C@@]3(C)[C@@H](O)CCC(C)(C)[C@@H]3[C@H](O)[C@H](OC(C)=O)[C@@]2(C)O1` [Forskolin, forskolin], for which the fold induction at 1 µM in data set [1] (Mus musculus, Neural stem cell, 96 h, read-out: Fold Induction ATP) was determined as 1.1; in data set [2] (Mus musculus, Neural stem cell, 0.25 h, read-out: Fold Induction cAMP), 3.1. In data set [1] (Table 1, 1000 nM, 4 days in culture), the “ATP (nM ATP/well)” value is listed as 10.4 ± 2.4 nM ATP/well. The fold induction at 10 µM in the data set on Adult neural stem cells (Mus musculus, Neural stem cell, read-out: Fold Induction (Doublecortin-positive cells)) turned out to be 2.5. The “% Doublecortin-positive cells” value with Adult neural stem cells (10 μM) is 6.3%. Also, in data set [2] (Table 1, 1000 nM, after 15 minutes), the “cAMP (pmol/well)” value stood at 0.07 ± 0.01 pmol/well.

`CNC(=O)[C@H]1O[C@@H](n2cnc3c(N)ncnc32)[C@H](O)[C@@H]1O` [MECA]: in data set [1] (Table 2, 100 nM, 4 days), the “ATP (nM ATP/well)” value was 7.4 ± 0.7 nM ATP/well and the “Fold Induction ATP” value is listed as 1.6** fold. For the same molecule, in the data set on Adult neural stem cells (10 μM), the “% Doublecortin-positive cells” value came out at 2.2% and the “Fold Induction (Doublecortin-positive cells)” value is recorded as 0.9 fold. In data set [2] (setting [4]), the “cAMP (pmol/well)” value is 3.89 ± 1.00 pmol/well. In data set [2] (Table 2, 100 nM), the “Fold Induction cAMP” value is recorded as 2.1* fold.

`CC(C)C[C@H](NC(=O)[C@H](CCCCN)NC(=O)CNC(=O)[C@H](CC(C)C)NC(=O)[C@@H](NC(=O)[C@@H]1CSSC[C@H](N)C(=O)N[C@@H](CO)C(=O)N[C@@H](CC(N)=O)C(=O)N[C@@H](CC(C)C)C(=O)N[C@@H](CO)C(=O)N[C@@H]([C@@H](C)O)C(=O)N1)C(C)C)C(=O)N[C@@H](CO)C(=O)N[C@@H](CCC(N)=O)C(=O)N[C@@H](CCC(=O)O)C(=O)N[C@@H](CC(C)C)C(=O)N[C@@H](Cc1c[nH]cn1)C(=O)N[C@@H](CCCCN)C(=O)N[C@@H](CC(C)C)C(=O)N[C@@H](CCC(N)=O)C(=O)N[C@H](C(=O)N[C@@H](Cc1ccc(O)cc1)C(=O)N1CCC[C@H]1C(=O)N[C@@H](CCCNC(=N)N)C(=O)N[C@H](C(=O)N[C@@H](CC(N)=O)C(=O)N[C@H](C(=O)NCC(=O)N[C@@H](CO)C(=O)NCC(=O)N[C@H](C(=O)N1CCC[C@H]1C(N)=O)[C@@H](C)O)[C@@H](C)O)[C@@H](C)O)[C@@H](C)O` [Thyrocalcitonin (Salmon)]: in data set [1] (Table 2, 1 nM, 4 days), the “ATP (nM ATP/well)” value came out at 9.2 ± 0.7 nM ATP/well and the “Fold Induction ATP” value was 1.3* fold. In the data set with Adult neural stem cells (100 nM), the “% Doublecortin-positive cells” value came out at 3.9% and the “Fold Induction (Doublecortin-positive cells)” value turned out to be 1.5 fold. Also, the “cAMP (pmol/well)” value in data set [2] (setting [5]) was 0.63 ± 0.23 pmol/well. The “Fold Induction cAMP” value in data set [2] (Table 2, 1 nM) is reported as 3.8* (1 nM) fold.

Consider `N=C(N)NCCC[C@@H](N)C(=O)N[C@@H](CCCNC(=N)N)C(=O)N1CCC[C@H]1C(=O)N1C[C@H](O)C[C@H]1C(=O)NCC(=O)N[C@H](C(=O)N[C@@H](CO)C(=O)N[C@@H](C(=O)N1[C@H](C(=O)N[C@@H](CCCNC(=N)N)C(=O)O)C[C@@H]2CCCC[C@@H]21)C1Cc2ccccc2C1)C1Cc2ccccc2C1` [[D-Arg0, Hyp3, Ig15, D-Ig17, Oic8]-Bradykinin], for which, in data set [1] (Table 2, 100 nM, 4 days), the “ATP (nM ATP/well)” value was determined as 13.1 ± 2.1 nM ATP/well. In addition, the “% Doublecortin-positive cells” value in the data set with Adult neural stem cells (100 nM) turned out to be 3.6%. The “cAMP (pmol/well)” value in data set [2] (setting [3]) came out at 0.17 ± 0.02 pmol/well.

On to `CC(C)C[C@H](NC(=O)[C@@H](Cc1c[nH]c2ccccc12)NC(=O)[C@H](Cc1ccc(O)cc1)NC(=O)[C@H](CO)NC(=O)[C@@H](Cc1c[nH]c2ccccc12)NC(=O)[C@@H](Cc1ccccc1)NC(=O)[C@H]1CCC(=O)N1)C(=O)N[C@@H](CCCNC(=N)N)C(=O)N1CCC[C@H]1C(=O)NCC(N)=O` [[D-pGlu1,D-Phe2, D-Trp3,6]-LH-RH] ([d(pGlu)][dF][dW]SY[dW]LRPG-NH2; C-terminus assumed), for which the “ATP (nM ATP/well)” value in data set [1] (Table 2, 100 nM, 4 days) turned out to be 11.1 ± 0.4 nM ATP/well. In addition, the “% Doublecortin-positive cells” value with Adult neural stem cells (100 nM) is 3.4%. The “cAMP (pmol/well)” value in data set [2] (setting [5]) was 0.07 ± 0.02 pmol/well.

On to `N=C(N)NCCC[C@H](N)C(=O)N1CCC[C@H]1C(=O)N1CCC[C@H]1C(=O)NCC(=O)N[C@@H](Cc1ccccc1)C(=O)N[C@@H](CO)C(=O)N1CCC[C@H]1C(=O)N[C@@H](Cc1ccccc1)C(=O)O` [[Des-Arg9]-Bradykinin], for which, in data set [1] (Table 2, 1 nM, 4 days), the “ATP (nM ATP/well)” value is reported as 10.4 ± 1.0 nM ATP/well and the “Fold Induction ATP” value is given as 1.2* fold. Besides, in the data set with Adult neural stem cells (100 nM), the “% Doublecortin-positive cells” value stood at 4.5% and the “Fold Induction (Doublecortin-positive cells)” value was found to be 1.8 fold. Further, in data set [2] (setting [5]), the “cAMP (pmol/well)” value is reported as 0.06 ± 0.01 pmol/well. The “Fold Induction cAMP” value in data set [2] (Table 2, 1 nM) was 1.7*** fold.
